Assay results as given in patent US20130029928A1 (priority 2010, published 2013).
Read-outs that look alike come from different tables or passages of the source.

Experiment: Phase I study CXR1002-001: plasma pharmacokinetics (LC-MS/MS)
Assay type: in vivo, human
Conditions: human, plasma, oral, person, plasma; for concentration at 24 h: 24 hr (Day 2); for concentration at 168 h: 168 hr (Day 8); for concentration at 336 h: 336 hr (Day 15); for concentration at 360 h: 360 hr (Day 16); for concentration at 504 h: 504 hr (Day 22); for concentration at 672 h: 672 hr (Day 29); for concentration at 696 h: 696 hr (Day 30); for concentration at 840 h: 840 hr (Day 36)
Excerpt: PK samples, PD (fasting) samples, blood glucose, and blood triglyceride samples, were taken over a 6-week period.
Dose limiting toxicity (DLT) will be based on the toxicity assessments over the first 3-week period of the repeat dosing schedule. PK samples (single blood sample) were taken on the following basis: • Every 6 weeks during the repeat dosing phase • If dosing is interrupted or stopped, samples will be taken at intervals according to patient convenience • PK sampling for safety evaluation may take place at any time, as clinically indicated
Plasma samples were collected after the single 50 mg dose at the following timepoints: Pre-dose, and then 0.25, 0.5, 0.75, 1, 1.5, 2, 3, 4, 6, 24, 48, and 72 hours after administration and then once weekly at weeks 2, 3, 4, 5, and 6 (days 8, 15, 22, 29, and 36). For patients treated with the weekly repeat dose, plasma samples were collected at the following timepoints: Pre-dose and then 2, 3, 4 and 24 hours after administration for a total of 6 weeks. Thereafter a single sample was collected every 6 weeks for monitoring of exposure during long term treatment. Plasma samples were processed at site and stored at −80° C. prior to batch shipment to the analytical laboratory.

[1] = 1000 mg, Patient 040, 1000 mg, read-out: Concentration
[2] = 1200 mg, Patient 033, 1200 mg, read-out: Concentration

Compound `O=C(O)C(F)(F)C(F)(F)C(F)(F)C(F)(F)C(F)(F)C(F)(F)C(F)(F)F` [CXR1002] has a concentration at 4 h [1] of 190 µM, a concentration at 24 h [1] of 148 µM and a concentration at 168 h [1] of 120 µM. It also gave a concentration at 170 h [1] of 368 µM, a concentration at 171 h [1] of 343 µM and a concentration at 172 h (1000 mg, Patient 040, 1000 mg, 172 hr, read-out: Concentration) of 326 µM. The concentration at 192 h (1000 mg, Patient 040, 1000 mg, 192 hr (Day 9), read-out: Concentration) was 272 µM, the concentration at 336 h [1] was 305 µM and the concentration at 338 h [1] was 487 µM. For the same compound, the concentration at 339 h [1] was 427 µM, the concentration at 340 h [1] was 476 µM and the concentration at 360 h [1] was 485 µM. It also gave a concentration at 504 h [1] of 353 µM, a concentration at 506 h [1] of 502 µM and a concentration at 507 h (1000 mg, Patient 040, 1000 mg, 507 hr, read-out: Concentration) of 554 µM. For the same compound, the concentration at 508 h (1000 mg, Patient 040, 1000 mg, 508 hr, read-out: Concentration) was 515 µM, the concentration at 528 h (1000 mg, Patient 040, 1000 mg, 528 hr (Day 23), read-out: Concentration) was 525 µM and the concentration at 672 h [1] was 490 µM. For the same compound, the concentration at 674 h [1] was 558 µM, the concentration at 675 h [1] was 533 µM and the concentration at 676 h [1] was 607 µM. It also gave a concentration at 696 h [1] of 697 µM, a concentration at 840 h [1] of 574 µM and a concentration at 842 h [1] of 626 µM. It also gave a concentration at 843 h (1000 mg, Patient 040, 1000 mg, 843 hr, read-out: Concentration) of 748 µM, a concentration at 864 h (1000 mg, Patient 040, 1000 mg, 864 hr (Day 37), read-out: Concentration) of 826 µM and a concentration at 0 h (1200 mg, Patient 033, 1200 mg, 0 hr (pre-dose)) of 0 nM. The concentration at 2 h (1200 mg, Patient 033, 1200 mg, 2 hr, read-out: Concentration) was 441 µM, the concentration at 3 h (1200 mg, Patient 033, 1200 mg, 3 hr, read-out: Concentration) was 396 µM and the concentration at 4 h [2] was 374 µM. It also gave a concentration at 24 h [2] of 371 µM, a concentration at 168 h [2] of 317 µM and a concentration at 170 h [2] of 735 µM. It also gave a concentration at 171 h [2] of 657 µM, a concentration at 172 hr (1200 mg, Patient 033, 1200 mg, 172 hr, read-out: Concentration) of 637 µM and a concentration at 192 hr (1200 mg, Patient 033, 1200 mg, 192 hr (Day 9), read-out: Concentration) of 591 µM. It also gave a concentration at 336 h [2] of 637 µM, a concentration at 338 h [2] of 926 µM and a concentration at 339 h [2] of 841 µM. The concentration at 340 h [2] was 817 µM, the concentration at 360 h [2] was 915 µM and the concentration at 504 h [2] was 713 µM. The concentration at 506 h [2] was 1150 µM, the concentration at 507 hr (1200 mg, Patient 033, 1200 mg, 507 hr, read-out: Concentration) was 1060 µM and the concentration at 508 hr (1200 mg, Patient 033, 1200 mg, 508 hr, read-out: Concentration) was 1010 µM. For the same compound, the concentration at 672 h [2] was 1020 µM, the concentration at 674 h [2] was 1230 µM and the concentration at 675 h [2] was 1110 µM. For the same compound, the concentration at 676 h [2] was 1100 µM, the concentration at 696 h [2] was 1110 µM and the concentration at 840 h [2] was 1040 µM. The concentration at 842 h [2] was 1110 µM, the concentration at 843 hr (1200 mg, Patient 033, 1200 mg, 843 hr, read-out: Concentration) was 1230 µM and the concentration at 844 hr (1200 mg, Patient 033, 1200 mg, 844 hr, read-out: Concentration) was 1200 µM. It also gave a concentration at 864 hr (1200 mg, Patient 033, 1200 mg, 864 hr (Day 37), read-out: Concentration) of 1320 µM, a concentration at 2 hr (1200 mg, Patient 034, 1200 mg, 2 hr, read-out: Concentration) of 440 µM and a concentration at 3 hr (1200 mg, Patient 034, 1200 mg, 3 hr, read-out: Concentration) of 401 µM.
